pIC50: −log10 of the molar value.
Tests used:
Rattus norvegicus [1] = test: Activity against triglyceride level in obese female Zucker rat serum after 2 weeks at 100 mg/kg (percent change from pre-treatment); type: functional
Rattus norvegicus [2] = test: Tolerability of compound upto 5000 mg/kg; type: ADME, organism-based; set-up: dose 5000 mg/kg; details: in vivo
Rattus norvegicus [3] = test: Activity against high density lipoprotein cholesterol level in obese female Zucker rat serum after 1 week at 100 mg/kg (percent change from pre-treatment); type: functional
Rattus norvegicus [4] = test: Activity against high density lipoprotein cholesterol level in obese female Zucker rat serum after 2 weeks at 100 mg/kg (percent change from pre-treatment); type: functional
Rattus norvegicus [5] = test: Activity against non high density lipoprotein cholesterol level in obese female Zucker rat serum after 2 weeks at 100 mg/kg (percent change from pre-treatment); type: functional
Rattus norvegicus [6] = test: Activity against non high density lipoprotein cholesterol level in obese female Zucker rat serum after 1 week at 100 mg/kg (percent change from pre-treatment); type: functional
Hepatocyte = test: Inhibition of lipid synthesis in primary rat hepatocytes by incorporation radiolabeled acetate into cellular lipids; type: functional, cell-based, Sprague-Dawley; details: for pIC50: Rattus norvegicus, Sprague-Dawley, Hepatocyte, read-out: IC50
Rattus norvegicus [7] = test: Activity against triglyceride level in obese female Zucker rat serum after 1 week at 100 mg/kg (percent change from pre-treatment); type: functional
[8] = Half life in male Wistar rat at 100 mg/kg, po; type: ADME, organism-based; set-up: dose 100 mg/kg, route oral; details: in vivo
[9] = AUC in male Wistar rat at 100 mg/kg, po; type: ADME, organism-based; set-up: dose 100 mg/kg, route oral; details: plasma
[10] = AUC (infinity) in male Wistar rat at 100 mg/kg, po; type: ADME, organism-based; set-up: time infinity, dose 100 mg/kg, route oral; details: plasma
[11] = Tmax in male Wistar rat at 100 mg/kg, po; type: ADME, organism-based; set-up: dose 100 mg/kg, route oral; details: in vivo
[12] = Cmax in male Wistar rat at 100 mg/kg, po; type: ADME, organism-based; set-up: dose 100 mg/kg, route oral; details: in vivo
[13] = Clearance in male Wistar rat at 100 mg/kg, po; type: ADME, organism-based; set-up: dose 100 mg/kg, route oral; details: in vivo
Rattus norvegicus [14] = test: Volume of distribution in male Wistar rat at 100 mg/kg, po; type: ADME, organism-based; set-up: dose 100 mg/kg, route oral; details: in vivo
Rattus norvegicus [15] = test: Tolerability of compound upto 2000 mg/kg; type: organism-based; set-up: dose 2000 mg/kg; details: in vivo
Rattus norvegicus [16] = test: Activity against triglyceride level in obese female Zucker rat serum after 1 week at 80 mg/kg (percent change from pre-treatment); type: functional
Rattus norvegicus [17] = test: Activity against high density lipoprotein cholesterol level in obese female Zucker rat serum after 1 week at 80 mg/kg (percent change from pre-treatment); type: functional
Rattus norvegicus [18] = test: Activity against high density lipoprotein cholesterol level in obese female Zucker rat serum after 2 weeks at 80 mg/kg (percent change from pre-treatment); type: functional
Rattus norvegicus [19] = test: Activity against non high density lipoprotein cholesterol level in obese female Zucker rat serum after 2 weeks at 80 mg/kg (percent change from pre-treatment); type: functional
Rattus norvegicus [20] = test: Activity against triglyceride level in obese female Zucker rat serum after 2 weeks at 80 mg/kg (percent change from pre-treatment); type: functional
Rattus norvegicus [21] = test: Activity against non high density lipoprotein cholesterol level in obese female Zucker rat serum after 1 week at 80 mg/kg (percent change from pre-treatment); type: functional

Compound | Activity (Rattus norvegicus [1]) [%] | Activity (Rattus norvegicus [3]) [%] | Activity (Rattus norvegicus [4]) [%] | Activity (Rattus norvegicus [5]) [%] | Activity (Rattus norvegicus [6]) [%] | pIC50 (Hepatocyte) | Activity (Rattus norvegicus [7]) [%] | other results
CC(C)(CO)CCCCSCCCCC(C)(C)CO | -56 | 141 | 153 | 9 | -11 | 4.74 | -37 | Activity (Rattus norvegicus [2]): Active
CC(C)(CCCCC(O)CCCCC(C)(C)C(=O)O)C(=O)O | -59 | 57 | 50 | -41 | -6 | 5.33 | -32 | half-life [8]: 16.9 h; AUC [9]: 703 µg·h/mL; AUC(0-inf) [10]: 1180 µg·h/mL; Tmax [11]: 6 h; Cmax [12]: 40600 ng/mL; CL/F [13]: 0.473 mL/min; Vdss (Rattus norvegicus [14]): 2.0721 L/kg
CC(C)(CO)CCCCOCCCCC(C)(C)CO | -71 | 234 | 366 | 11 | -38 | 4.97 | -77 | Activity (Rattus norvegicus [15]): Active
CC(C)(CO)CCCCOP(=O)(O)OCCCCC(C)(C)CO | – | – | – | – | – | – | – | Activity (Rattus norvegicus [16]): -10%; Activity (Rattus norvegicus [17]): 27%; IC50 (Hepatocyte; hepatocyte): Not Active; Activity (Rattus norvegicus [18]): 8%; Activity (Rattus norvegicus [19]): -17%; Activity (Rattus norvegicus [20]): -13%; Activity (Rattus norvegicus [21]): -29%

From ChEMBL document CHEMBL1148579, “Influence of various central moieties on the hypolipidemic properties of long hydrocarbon chain diols and diacids” (J Med Chem, 2006)
